Here are results for four compounds from paper PMC11284788, “NN1213 – A Potent, Long-Acting, and Selective Analog of Human Amylin” (Journal of Medicinal Chemistry, 2024).

The structures appear in SMILES notation. ≈ marks a conversion by molar mass, not a printed value. Where two headings read alike, the source gives them in different places. Numbered stars: 1 amine (or outer) side, 2 acyl side, 3 side chain; on linkers, the order of the positions; unused ones are H or OH. Bridge positions count the residues as written; N and C are the ends. Side chains are listed from the residue outwards. Peptide text beside a SMILES is read from it. * marks the point of attachment. C20 diacid = O=C(O)CCCCCCCCCCCCCCCCCCC(=O)*; γGlu = O=C(O)[C@H](CCC(=O)[*:2])N[*:1]

Data set [1] can be described thus: ThT assay: fibril formation propensity and peptide recovery. To be noted: for ThT, pH 4.0 lag-time: 10 mM glycylglycine pH 4.0, 1 μM ThT; for recovery: residual dissolved peptide after 45 h of shaking, centrifugation and 0.22 μm filtration, HPLC, relative to amount before stress. The data set is classed as physicochemical. Put shortly:
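Peptides at 250 μM in 10 mM glycylglycine (pH 4.0) or HEPES (pH 7.5) with 1 μM ThT, shaken at 37 °C, 960 rpm, for 45 h; ThT fluorescence (ex 444/em 485 nm) read every 20 min. Lag time is the lowest of four replicates (>45 h if none); recovery is soluble peptide by HPLC after centrifugation/filtration, relative to pre-stress.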

Data set [2] can be described thus: Solubility versus pH profile.
Data set [3] can be described thus: HMWP content by size-exclusion chromatography. The data set is classed as physicochemical. Particulars: covalent dimers and polymers prior to fibril formation testing, SEC, % of total absorbance area at 215 nm. In outline: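 Amylin analogs analysed before fibril-formation testing by isocratic SEC in 0.5 M NaCl, 10 mM sodium dihydrogen phosphate, 5 mM ortho-phosphoric acid, 50% (v/v) 2-propanol. HMWP (covalent dimers/polymers) given as peak absorbance area percentage of total, assuming equal extinction coefficients for HMWP and main peak.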

Another data set deals with T1, hAMY3R (Homo sapiens, UniProt O60896+P30988).
T1 sequence (P30988 25-474): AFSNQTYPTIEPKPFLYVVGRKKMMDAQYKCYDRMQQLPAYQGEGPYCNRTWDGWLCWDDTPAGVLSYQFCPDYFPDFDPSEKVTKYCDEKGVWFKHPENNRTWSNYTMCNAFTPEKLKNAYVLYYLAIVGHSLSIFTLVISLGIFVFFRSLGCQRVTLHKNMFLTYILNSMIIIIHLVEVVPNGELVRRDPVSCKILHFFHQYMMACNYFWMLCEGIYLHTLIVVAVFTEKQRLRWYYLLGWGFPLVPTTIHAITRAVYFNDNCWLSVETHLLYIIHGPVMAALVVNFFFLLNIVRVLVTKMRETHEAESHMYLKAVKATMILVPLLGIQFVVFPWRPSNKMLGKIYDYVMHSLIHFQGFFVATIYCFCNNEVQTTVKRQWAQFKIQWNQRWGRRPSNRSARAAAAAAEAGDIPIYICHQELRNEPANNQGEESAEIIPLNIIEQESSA
T1 sequence (O60896 24-148 partner): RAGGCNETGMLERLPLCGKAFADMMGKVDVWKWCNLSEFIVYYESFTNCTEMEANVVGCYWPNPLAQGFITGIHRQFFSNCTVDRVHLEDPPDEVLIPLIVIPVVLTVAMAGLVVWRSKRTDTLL
The data set is described as follows: cAMP-responsive element luciferase reporter assay, human AMY3R. The data set is classed as cell-based. More on the design: expressed in transfected cells. To be noted: for ratio hCTR/hAMY3R: ratio of luciferase EC50 values; for EC50: luciferase (human receptor assay).

Where [4] appears, read: 250 μM peptide, 37 °C, 960 rpm, 45 h, lowest of four replicas, average of experiments.
[5] abbreviates: bis-tris-propane buffer, pH 6, aqueous buffer.
Setting [6] is: bis-tris-propane buffer, pH 6.5, aqueous buffer.
Where [7] appears, read: bis-tris-propane buffer, pH 7, aqueous buffer.
Setting [8] is: bis-tris-propane buffer, pH 7.5, aqueous buffer.
Where [9] appears, read: bis-tris-propane buffer, pH 8, aqueous buffer.
Setting [10] is: lactate buffer, pH 4, aqueous buffer.
Where [11] appears, read: lactate buffer, pH 5, aqueous buffer.

Broadly, the kinetic solubility is the concentration staying in solution when a stock, usually in DMSO, is diluted into the medium. For `CC[C@H](C)[C@H](NC(=O)[C@H](C)NC(=O)CNC(=O)[C@H](Cc1ccccc1)NC(=O)[C@H](CC(N)=O)NC(=O)[C@@H]1CCCN1C(=O)[C@H](CO)NC(=O)[C@H](CO)NC(=O)[C@H](Cc1c[nH]cn1)NC(=O)[C@H](CCCNC(=N)N)NC(=O)[C@H](CC(C)C)NC(=O)[C@H](Cc1ccccc1)NC(=O)[C@H](CCC(=O)O)NC(=O)[C@H](C)NC(=O)[C@H](CC(C)C)NC(=O)[C@H](CCCNC(=N)N)NC(=O)[C@H](CCC(N)=O)NC(=O)[C@@H](NC(=O)[C@H](C)NC(=O)[C@@H]1CSSC[C@H](NC(=O)[C@@H](N)CCCCNC(=O)CC[C@H](NC(=O)CCCCCCCCCCCCCCCCCCC(=O)O)C(=O)O)C(=O)N[C@@H](CC(N)=O)C(=O)N[C@@H]([C@@H](C)O)C(=O)N[C@@H](C)C(=O)N[C@@H]([C@@H](C)O)C(=O)N1)[C@@H](C)O)C(=O)N1CCC[C@H]1C(=O)N[C@@H](CO)C(=O)N[C@@H](CO)C(=O)N[C@H](C(=O)N[C@@H](CC(N)=O)C(=O)N[C@H](C(=O)NCC(=O)N[C@@H](CO)C(=O)N[C@@H](CCCNC(=N)N)C(=O)N[C@H](C(=O)N[C@@H](Cc1ccc(O)cc1)C(N)=O)[C@@H](C)O)C(C)C)[C@@H](C)O` [Peptide 20] (H-K([γGlu-C20 diacid])CNTATCATQRLAEFLRHSSPNFGAIPSSTNVGSRTY-NH2; disulfide 2-7), the “ThT, pH 4.0 lag-time” value in data set [1] (setting [4]) was 7 h. The compound also had a recovery in data set [1] (pH 4.0) of 91%. The kinetic solubility in data set [2] (setting [5]) was no less than 200 µM; in data set [2] (setting [6]), no less than 200 µM; in data set [2] (setting [7]) it was no less than 200 µM; in data set [2] (setting [8]), 183 µM (≈ 812 µg/mL); in data set [2] (setting [9]) it was 109 µM (≈ 484 µg/mL); in data set [2] (setting [10]) it was no less than 200 µM. Besides, the solubility (kinetic) in data set [2] (setting [11]) is no less than 200 µM. For the same compound, in data set [3] (analogs 10–21 (pH 4.0 series)), the HMWP is 4.9%. In addition, at hAMY3R, the “ratio hCTR/hAMY3R” value amounted to 15.

Take `CC[C@H](C)[C@H](NC(=O)[C@H](C)NC(=O)CNC(=O)[C@H](Cc1ccccc1)NC(=O)[C@H](CC(N)=O)NC(=O)[C@@H]1CCCN1C(=O)[C@H](CO)NC(=O)[C@H](CO)NC(=O)[C@H](Cc1c[nH]cn1)NC(=O)[C@H](CCCNC(=N)N)NC(=O)[C@H](CC(C)C)NC(=O)[C@H](Cc1ccccc1)NC(=O)[C@H](CC(=O)O)NC(=O)[C@H](C)NC(=O)[C@H](CC(C)C)NC(=O)[C@H](CCCNC(=N)N)NC(=O)[C@H](CCC(N)=O)NC(=O)[C@@H](NC(=O)[C@H](C)NC(=O)[C@@H]1CSSC[C@H](NC(=O)[C@@H](N)CCCCNC(=O)CC[C@H](NC(=O)CC[C@H](NC(=O)CCCCCCCCCCCCCCCCCCC(=O)O)C(=O)O)C(=O)O)C(=O)N[C@@H](CC(N)=O)C(=O)N[C@@H]([C@@H](C)O)C(=O)N[C@@H](C)C(=O)N[C@@H]([C@@H](C)O)C(=O)N1)[C@@H](C)O)C(=O)N1CCC[C@H]1C(=O)N[C@@H](CO)C(=O)N[C@@H](CO)C(=O)N[C@H](C(=O)N[C@@H](CC(N)=O)C(=O)N[C@H](C(=O)NCC(=O)N[C@@H](CO)C(=O)N[C@@H](CCCNC(=N)N)C(=O)N[C@H](C(=O)N[C@@H](Cc1ccc(O)cc1)C(N)=O)[C@@H](C)O)C(C)C)[C@@H](C)O` [NN1213]: the “ThT, pH 4.0 lag-time” value in data set [1] (250 μM peptide, 37 °C, 960 rpm, 45 h, lowest of four replicas, average of experiments, listed as 21) stood at 42 h. The recovery in data set [1] (pH 4.0) came out at 96%. Moreover, the solubility (kinetic) in data set [2] (setting [5]) is no less than 200 µM; in data set [2] (setting [6]), no less than 200 µM; in data set [2] (setting [7]), 155 µM (≈ 706 µg/mL); in data set [2] (setting [8]), 106 µM (≈ 483 µg/mL); in data set [2] (setting [9]), 110 µM (≈ 501 µg/mL); in data set [2] (setting [10]), no less than 200 µM. In data set [2] (setting [11]), this compound showed a kinetic solubility of no less than 200 µM. This compound also displayed an HMWP in data set [3] (analogs 10–21 (pH 4.0 series)) of 0.9%. Further, on hAMY3R (listed as 21), the “ratio hCTR/hAMY3R” value is listed as 29.

For the compound `CC(C)C[C@H](NC(=O)[C@H](CCCNC(=N)N)NC(=O)[C@H](CCC(N)=O)NC(=O)[C@@H](NC(=O)[C@H](C)NC(=O)[C@@H]1CSSC[C@H](NC(=O)[C@@H](N)CCCCNC(=O)CC[C@H](NC(=O)CC[C@H](NC(=O)CCCCCCCCCCCCCCCCCCC(=O)O)C(=O)O)C(=O)O)C(=O)N[C@@H](CC(N)=O)C(=O)N[C@@H]([C@@H](C)O)C(=O)N[C@@H](C)C(=O)N[C@@H]([C@@H](C)O)C(=O)N1)[C@@H](C)O)C(=O)N[C@@H](C)C(=O)N[C@@H](CC(=O)O)C(=O)N[C@@H](Cc1ccccc1)C(=O)N[C@@H](CC(C)C)C(=O)N[C@@H](CCCNC(=N)N)C(=O)N[C@@H](Cc1c[nH]cn1)C(=O)N[C@@H](CO)C(=O)N[C@@H](CO)C(=O)N[C@@H](CC(N)=O)C(=O)N1CCC[C@H]1C(=O)N[C@@H](Cc1ccccc1)C(=O)NCC(=O)N[C@@H](C)C(=O)N1CCC[C@H]1C(=O)N[C@@H](CC(C)C)C(=O)N[C@@H](CO)C(=O)N[C@@H](CO)C(=O)N[C@H](C(=O)N[C@@H](CC(N)=O)C(=O)N[C@H](C(=O)NCC(=O)N[C@@H](CO)C(=O)N[C@@H](CC(=O)O)C(=O)N[C@H](C(=O)N[C@@H](Cc1ccc(O)cc1)C(N)=O)[C@@H](C)O)C(C)C)[C@@H](C)O` [Peptide 7] (H-K([γGlu-γGlu-C20 diacid])CNTATCATQRLADFLRHSSNPFGAPLSSTNVGSDTY-NH2; disulfide 2-7), the “ThT, pH 7.5 lag-time” value in data set [1] (250 μM peptide, 10 mM HEPES pH 7.5, 1 μM ThT, 37 °C, 960 rpm, 45 h, lowest of four replicas, average of experiments) was greater than 45 h. The compound further displayed a recovery in data set [1] (pH 7.5) of 100%. For the same compound, the kinetic solubility was 189 µM (≈ 853 µg/mL) in data set [2] (setting [5]); no less than 200 µM in data set [2] (setting [6]); 195 µM (≈ 880 µg/mL) in data set [2] (setting [7]); no less than 200 µM in data set [2] (setting [8]); no less than 200 µM in data set [2] (setting [9]); 96 µM (≈ 433 µg/mL) in data set [2] (setting [10]). For the same compound, the kinetic solubility in data set [2] (setting [11]) was found to be 141 µM (≈ 636 µg/mL). Further, the HMWP in data set [3] (analogs 1–9 (pH 7.5 series)) was 3%. Besides, on hAMY3R, the “ratio hCTR/hAMY3R” value came out at 6.9.

In the case of `CC[C@H](C)[C@H](NC(=O)[C@H](C)NC(=O)CNC(=O)[C@H](Cc1ccccc1)NC(=O)[C@H](CC(N)=O)NC(=O)[C@@H]1CCCN1C(=O)[C@H](CO)NC(=O)[C@H](CO)NC(=O)[C@H](Cc1c[nH]cn1)NC(=O)[C@H](CCCNC(=N)N)NC(=O)[C@H](CC(C)C)NC(=O)[C@H](Cc1ccccc1)NC(=O)[C@H](CC(N)=O)NC(=O)[C@H](C)NC(=O)[C@H](CC(C)C)NC(=O)[C@H](CCCNC(=N)N)NC(=O)[C@H](CCC(N)=O)NC(=O)[C@@H](NC(=O)[C@H](C)NC(=O)[C@@H]1CSSC[C@H](NC(=O)[C@H](CCCCN)NC(=O)CC[C@H](NC(=O)CCCCCCCCCCCCCCCCCCC(=O)O)C(=O)O)C(=O)N[C@@H](CC(N)=O)C(=O)N[C@@H]([C@@H](C)O)C(=O)N[C@@H](C)C(=O)N[C@@H]([C@@H](C)O)C(=O)N1)[C@@H](C)O)C(=O)N1CCC[C@H]1C(=O)N[C@@H](CO)C(=O)N[C@@H](CO)C(=O)N[C@H](C(=O)N1CCC[C@H]1C(=O)N[C@H](C(=O)NCC(=O)N[C@@H](CO)C(=O)N[C@@H](CCC(=O)O)C(=O)N[C@H](C(=O)N[C@@H](Cc1ccc(O)cc1)C(N)=O)[C@@H](C)O)C(C)C)[C@@H](C)O` [Peptide 11] ({C20 diacid-γGlu}-KCNTATCATQRLANFLRHSSPNFGAIPSSTPVGSETY-NH2; disulfide 2-7), in data set [1] (setting [4]), the “ThT, pH 4.0 lag-time” value is reported as 40 h. The same compound displayed a recovery in data set [1] (pH 4.0) of 74%. The kinetic solubility in data set [2] (setting [5]), in data set [2] (setting [6]), in data set [2] (setting [7]), in data set [2] (setting [8]), in data set [2] (setting [9]) and in data set [2] (setting [10]) was no less than 200 µM each time. This compound displayed a solubility (kinetic) in data set [2] (setting [11]) of no less than 200 µM. The HMWP in data set [3] (analogs 10–21 (pH 4.0 series)) is recorded as 2.6%. Moreover, the EC50 is 0.186 nM at hAMY3R (Tables S12 and S14, read-out: hAMY3R pEC50 (converted)); 0.186 nM at hAMY3R (BHK cells stably expressing hCTR+RAMP3 and CRE-luciferase, 3 h, 37 °C, 10% FBS, read-out: hAMY3R EC50). The “ratio hCTR/hAMY3R” value at hAMY3R is 11.
